Values quoted from earlier work as cited in US20130195996A1, “METHOD OF PRODUCING PLEURODESIS” (CAREFUSION 2200, INC., priority 2010, published 2013).

Legend:
rabbits [1] = test system: rabbits
rabbits [2] = conditions: single dosage administration of 0.1% silver nitrate (Marchi et al. 2005)
[3] = known methods, high dosages such as 10% concentration (typically 200 mg AgNO3), single dosage
[4] = 2 mL of 0.25% silver nitrate (Vargas et al. 2001)

## O=[N+]([O-])[O-].[Ag+] [silver nitrate]
Rabbits [1]; [4]
  persistence of pleurodesis result: persists for at least a year
  pleurodesis result: relatively superior pleurodesis result
Rabbits [1]; intrapleural injection of 0.5% silver nitrate (Texeira et al. 2003)
  pleurodesis: significant pleurodesis
Rabbits [1]; single intrapleural injection of 0.25% silver nitrate (Texeira et al. 2003)
  sclerosing effects: no sclerosing effects
Rabbits [2]
  pleural inflammation: relatively intense pleural inflammation
[3]
  adverse effects associated with injection into the pleural space: severe pain, fever, and relatively large amount of effusion
